The supplement of paper PMC10307832

What was measured:
Test in all cases: relative viability (nuclei count vs DMSO), 5 days (fraction); higher = more cells survive
Ibrutinib + Pictilisib = compound: C=CC(=O)N1CCC[C@@H](n2nc(-c3ccc(Oc4ccccc4)cc3)c3c(N)ncnc32)C1 [Ibrutinib] + CS(=O)(=O)N1CCN(Cc2cc3nc(-c4cccc5[nH]ncc45)nc(N4CCOCC4)c3s2)CC1 [Pictilisib] (partner 1 µM)
Summary of the method: (§1)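 Relative viability equals treated-well nuclei counts divided by vehicle-well nuclei counts. Counts came from 4× images of lung cancer cell lines grown in 1536-well plates for 5 days after pin-tool dosing on the day after seeding. Dosing used one drug alone or a fixed anchor-drug dose plus five library-drug doses (not always all listed) in √10 steps, and values are medians of duplicate plates.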

Ibrutinib + Olaparib = compound: C=CC(=O)N1CCC[C@@H](n2nc(-c3ccc(Oc4ccccc4)cc3)c3c(N)ncnc32)C1 [Ibrutinib] + O=C(c1cc(Cc2n[nH]c(=O)c3ccccc23)ccc1F)N1CCN(C(=O)C2CC2)CC1 [Olaparib] (partner 8 µM)
Summary of the method: as §1

BMX-IN-1 + Phenformin = compound: C=CC(=O)Nc1cc(-n2c(=O)ccc3cnc4ccc(-c5ccc(NS(C)(=O)=O)cc5)cc4c32)ccc1C [BMX-IN-1] + N=C(N)NC(=N)NCCc1ccccc1 [Phenformin] (partner 250 µM)
Summary of the method: as §1

BMX-IN-1 + Olaparib = compound: C=CC(=O)Nc1cc(-n2c(=O)ccc3cnc4ccc(-c5ccc(NS(C)(=O)=O)cc5)cc4c32)ccc1C [BMX-IN-1] + O=C(c1cc(Cc2n[nH]c(=O)c3ccccc23)ccc1F)N1CCN(C(=O)C2CC2)CC1 [Olaparib] (partner 8 µM)
Summary of the method: as §1

Cell Line | relative viability (Ibrutinib + Pictilisib; first compound 0.005 µM) | relative viability (Ibrutinib + Pictilisib; first compound 0.01581 µM) | relative viability (Ibrutinib + Pictilisib; first compound 0.05 µM) | relative viability (Ibrutinib + Pictilisib; first compound 0.1581 µM) | relative viability (Ibrutinib + Pictilisib; first compound 0.5 µM) | relative viability (Ibrutinib + Olaparib; first compound 0.005 µM) | relative viability (Ibrutinib + Olaparib; first compound 0.01581 µM) | relative viability (Ibrutinib + Olaparib; first compound 0.05 µM) | relative viability (Ibrutinib + Olaparib; first compound 0.1581 µM) | relative viability (Ibrutinib + Olaparib; first compound 0.5 µM) | relative viability (BMX-IN-1 + Phenformin; first compound 0.02 µM) | relative viability (BMX-IN-1 + Phenformin; first compound 0.2 µM) | relative viability (BMX-IN-1 + Phenformin; first compound 0.6325 µM) | relative viability (BMX-IN-1 + Phenformin; first compound 2 µM) | relative viability (BMX-IN-1 + Olaparib; first compound 0.02 µM) | relative viability (BMX-IN-1 + Olaparib; first compound 0.2 µM) | relative viability (BMX-IN-1 + Olaparib; first compound 0.6325 µM) | relative viability (BMX-IN-1 + Olaparib; first compound 2 µM)
201T | 0.581 | 0.704 | 0.66 | 0.616 | 0.598 | 0.844 | 0.848 | 0.841 | 0.816 | 0.793 | 0.519 | 0.464 | 0.483 | 0.458 | 0.84 | 0.904 | 0.844 | 0.83
A549 | 0.396 | 0.416 | 0.521 | 0.586 | 0.499 |  | 0.35 | 0.279 | 0.326 | 0.21 | 0.164 | 1.01 | 0.17 | 0.188 | 0.286 | 0.392 | 0.249 | 0.306
A-427 | 0.553 | 0.623 | 0.719 | 0.405 | 0.743 | 0.71 | 0.722 | 0.723 |  | 0.766 | 0.192 | 0.324 | 0.348 | 0.37 | 0.709 | 0.766 | 0.979 | 0.783
ABC-1 | 0.528 | 0.743 | 0.716 | 0.513 | 0.615 | 0.85 | 0.774 |  |  | 0.844 | 0.227 | 0.232 | 0.243 | 0.229 | 0.749 | 1.02 | 0.815 | 0.978
BEN | 0.347 | 0.535 | 0.518 | 0.5 | 0.536 | 0.984 | 1.11 | 1.09 | 1.11 | 1.2 | 0.264 | 0.259 | 0.273 | 0.254 | 1.26 | 1.02 | 1.05 | 1.15
CAL-12T | 0.232 | 0.448 | 0.394 | 0.355 | 0.495 | 0.665 | 0.677 | 0.658 | 0.818 | 0.506 | 0.59 | 0.544 | 0.579 | 0.54 | 0.822 | 0.71 | 0.695 | 0.759
COR-L23 | 0.626 | 0.742 | 0.885 | 0.925 | 0.729 | 0.398 | 0.31 | 0.363 | 0.385 | 0.327 | 0.499 | 0.553 | 0.46 | 0.48 | 0.286 | 0.373 | 0.439 | 0.327
COR-L 105 | 0.316 | 0.418 | 0.488 | 0.341 | 0.325 | 0.663 | 0.683 | 0.717 | 0.755 | 0.46 | 0.486 | 0.458 | 0.49 | 0.574 | 0.735 | 0.689 | 0.791 | 0.641
Calu-6 | 0.854 | 0.843 | 0.949 | 1.05 |  | 0.673 | 0.582 | 0.576 | 0.599 | 0.589 |  |  |  |  | 0.533 | 0.656 | 0.607 | 0.565
ChaGo-K-1 | 0.356 | 0.83 | 0.592 |  | 0.956 | 0.445 | 0.421 | 0.424 | 0.436 | 0.426 | 0.499 | 0.517 | 0.541 | 0.5 | 0.435 | 0.443 | 0.416 | 0.417
EBC-1 | 0.31 | 0.436 | 0.378 | 0.456 | 0.321 | 0.718 | 0.645 | 0.606 | 0.737 | 0.797 |  |  |  |  | 0.734 | 0.689 | 0.779 | 0.762
EKVX | 0.341 | 0.391 | 0.435 | 0.461 | 0.278 | 0.691 | 0.835 | 0.674 | 0.935 | 0.449 | 0.21 | 0.245 | 0.247 | 0.211 | 0.99 | 0.993 | 0.971 | 0.828
EMC-BAC-2 | 0.43 | 0.521 | 0.604 | 0.525 | 0.522 | 0.505 | 0.52 | 0.56 |  | 0.562 | 0.553 | 0.573 | 0.56 | 0.515 | 0.514 | 0.49 | 0.512 | 0.494
EPLC-272H |  | 0.291 | 0.299 | 0.194 | 0.267 | 0.708 | 0.597 | 0.49 | 0.79 | 0.455 | 0.263 | 0.339 | 0.345 | 0.281 | 0.823 | 0.834 | 0.509 | 0.677
H3255 | 0.389 | 0.397 | 0.263 | 0.415 | 0.14 | 0.533 | 0.53 | 0.516 | 0.623 | 0.407 | 0.327 | 0.357 | 0.782 | 0.374 | 0.584 | 0.588 | 0.548 | 0.628
HARA | 0.185 | 0.515 | 0.383 | 0.412 | 0.232 | 0.96 | 0.712 | 0.778 | 0.763 | 0.384 | 0.413 | 0.619 | 0.489 | 0.409 | 1.01 | 0.859 | 0.936 | 0.734
HCC-15 | 0.646 | 0.678 | 0.731 | 0.361 | 0.711 | 0.835 | 0.724 | 0.75 | 0.846 | 0.773 | 0.501 | 0.591 | 0.531 | 0.506 | 0.645 | 0.827 | 0.706 | 0.787
HCC-44 | 0.593 | 0.467 | 0.527 | 0.599 | 0.694 | 1.06 | 0.965 |  | 1 | 1.07 | 0.321 | 0.269 | 0.251 | 0.262 | 1.02 | 0.994 | 1.03 | 1.07
HCC-78 | 0.199 | 0.202 | 0.177 | 0.159 | 0.172 |  | 0.773 | 0.716 | 0.87 | 0.679 | 0.726 | 0.761 | 0.834 | 0.697 | 1.09 | 0.744 | 0.804 | 0.913
